Measured values: patent US20250339441A1, “METHODS OF TREATING CANCER” (FOGHORN THERAPEUTICS INC., priority 2022, published 2025)

Tests used:
[1] = Phase 1 dose escalation clinical trial of Compound A, oral, in subjects with metastatic uveal melanoma; type: in vivo
Experimental: A Phase 1 dose escalation clinical trial of Compound A is conducted. The trial is primarily intended to determine the maximum tolerated dose (MTD) and/or recommended phase 2 dose of the compound when administered orally to subjects with metastatic uveal melanoma (UM).
In this ongoing study, Compound A has been administered at dose levels of 2.5 mg once a day (QD), 5 mg QD, 7.5 mg QD, and 10 mg QD to 17 subjects with metastatic UM. […] In evaluable subjects, myeloid differentiation and reduction in bone marrow and/or peripheral blasts have been observed.

[2] = Population PK model (nonlinear mixed-effects, two-compartment) of oral Compound A patient concentration vs. time data; type: in vivo, human
Experimental: A population PK model based on orally administered Compound A dosing data in a total of 10 patients with metastatic uveal melanoma (UM) and advanced hematologic malignancies (e.g., acute myeloid leukemia (AML)) was performed.
Nonlinear mixed-effects models were fitted to concentration vs. time data of FHD-286. Various compartmental models with linear elimination (1-, 2- and 3-compartment), absorption models, structures of omega on clearances, volumes and absorption parameters (diagonal and block) were developed to assess the PK of Compound A.
Overall, a two-compartment model with linear elimination, a zero-order oral absorption, and a lag time of absorption adequately characterized the concentration-time profiles of Compound A.
Exploratory analysis of covariate effects was performed with appropriate plots presenting relationships between the ETAs (e.g., values reflecting the difference between and individual's parameter value and that of the population) of PK parameters to identify any remaining covariate trends. […] Therefore a “Multiple Dose Effect” on CL was included in the model to account for this change over time.
No other covariates were included as part of the model.

[3] = final population PK model, oral, 10 patients

## COC[C@H](NC(=O)c1ccn(S(C)(=O)=O)c1)C(=O)Nc1nc(-c2cccc(N3C[C@@H](C)O[C@@H](C)C3)n2)cs1 [Compound A, N-(1-((4-(6-(2,6-dimethylmorpholino)pyridin-2-yl)thiazol-2-yl)amino)-3-methoxy-1-oxopropan-2-yl)-1-(methylsulfonyl)-1H-pyrrole-3-carboxamide]
[1]; in evaluable subjects
  myeloid differentiation: observed
  reduction in bone marrow and/or peripheral blasts: observed
[1]; one subject at the 7.5 mg QD dose level, improved with a dose hold
  dose limiting toxicity: Grade 3 keratitis
[1]; oral 2.5, 5, 7.5, 10 mg QD, 17 subjects with metastatic UM, preliminary
  half-life (preliminary PK analysis): long
[1]; oral 2.5-10 mg QD, subjects with metastatic UM, preliminary
  plasma concentrations of the compound versus dose: increase with increasing dose
[2]; after multiple doses
  change in clearance (CL) over time: reduction
[2]; [3]
  CL, Estimate: 4.07 L/h
  CLp, Estimate: 30.6 L/h
  Tlag, Estimate (lag time of absorption): 0.452 h
  Vc, Estimate: 54.6 L
  Vd, Estimate: 165 L
[2]; final population PK model, oral, 10 patients with metastatic UM and advanced hematologic malignancies
  Dur, Estimate (zero-order oral absorption): 1.77 h
